The record followed here is patent publication US9630961B2, “Arginine methyltransferase inhibitors and uses thereof” (Epizyme, Inc., priority 2013, dated 2017).

As a reminder, the IC50 is the concentration needed to halve the response being measured. High values mean weaker potency, low ones greater potency.

The target in the test is T1, CARM1 (PRMT4) (Homo sapiens, UniProt Q86X55).
T1 construct: Flag-CARM1-His; made in house; host or cells: HEK 293F cells (BacMam virus)
T1 sequence (Q86X55 1-585 isoform Q86X55-1): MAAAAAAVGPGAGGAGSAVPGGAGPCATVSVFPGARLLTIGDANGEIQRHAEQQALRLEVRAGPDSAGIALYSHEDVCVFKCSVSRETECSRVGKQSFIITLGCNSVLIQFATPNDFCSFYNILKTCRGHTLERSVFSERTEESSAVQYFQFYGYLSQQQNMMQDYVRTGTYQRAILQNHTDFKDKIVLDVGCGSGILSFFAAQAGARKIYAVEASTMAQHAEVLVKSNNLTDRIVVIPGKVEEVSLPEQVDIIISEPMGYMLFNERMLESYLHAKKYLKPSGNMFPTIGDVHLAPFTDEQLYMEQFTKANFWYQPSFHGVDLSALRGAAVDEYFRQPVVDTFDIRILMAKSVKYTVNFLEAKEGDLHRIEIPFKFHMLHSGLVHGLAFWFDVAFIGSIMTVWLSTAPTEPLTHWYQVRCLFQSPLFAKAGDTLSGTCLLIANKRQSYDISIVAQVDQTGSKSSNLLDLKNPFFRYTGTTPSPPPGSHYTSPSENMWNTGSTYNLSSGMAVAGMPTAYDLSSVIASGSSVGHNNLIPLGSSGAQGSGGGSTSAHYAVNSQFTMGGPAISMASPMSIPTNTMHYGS
The experiment in a line: CARM1 Biochemical Assay (3H-SAM Flashplate, peptide substrate). The note with it: 30 min preincubation, room temperature. An excerpt: S-adenosylmethionine (SAM), S-adenosylhomocysteine (SAH), bicine, Tween20, dimethylsulfoxide (DMSO), bovine skin gelatin (BSG), sodium butyrate and Tris(2-carboxyethyl)phosphine hydrochloride solution (TCEP) were purchased from Sigma-Aldrich at the highest level of purity possible. ^3H-SAM was purchase from American Radiolabeled Chemicals with a specific activity of 80 Ci/mmol. 384-well streptavidin Flashplates were purchased from PerkinElmer.
Peptide representative of human histone H3 residues 16-30 was synthesized with an N-terminal linker-affinity tag motif and a C-terminal amide cap by 21st Century Biochemicals. The peptide was purified by high-performance liquid chromatography (HPLC) to greater than 95% purity and confirmed by liquid chromatography mass spectrometry (LC-MS). The sequence was Biot-Ahx-[…]-amide and contained a monomethylated arginine at position 26 (SEQ ID NO.:14).
Human CARM1 (PRMT4) (NM_199141.1) transcript clone was amplified from an HEK 293 cDNA library, incorporating a flanking 5′ sequence encoding a FLAG tag ([…]) (SEQ ID NO.:6) fused directly to Ala 2 of CARM1 and 3′ sequence encoding a hexa His sequence ([…]) (SEQ ID NO.:15) fused directly to Ser 608. The gene sequence encoding isoform1 containing a deletion of amino acids 539-561 was amplified subsequently and subcloned into pFastBacMam (Viva Biotech).
Recombinant baculovirus were generated according to Bac-to-Bac kit instructions (Life Technologies). […] Infections were carried out at 37° C. for 48 hours, harvested by centrifugation, and stored at −80° C. for purification.
Column was washed with 500 mM NaCl in buffer A and Flag-CARM1-His was eluted with 200 ug/ml FLAG peptide in buffer A. Pooled fractions were dialyzed in 20 mM Tris, 150 mM NaCl, 5% glycerol and 1 mM DTT, pH 7.8. The purity of recovered protein was 94.
General Procedure for CARM1 Enzyme Assays on Peptide Substrates.
The assays were all performed in a buffer consisting of 20 mM Bicine (pH=7.6), 1 mM TCEP, 0.005% BSG, and 0.002% Tween 20, prepared on the day of use. Compounds in 100% DMSO (1 ul) were spotted into a polypropylene 384-well V-bottom plates (Greiner) using a Platemate Plus outfitted with a 384-channel head (Thermo Scientific). DMSO (1 ul) was added to Columns 11, 12, 23, 24, rows A-H for the maximum signal control and 1 ul of SAH, a known product and inhibitor of CARM1, was added to columns 11, 12, 23, 24, rows I-P for the minimum signal control. A cocktail (40 ul) containing the CARM1 enzyme was added by Multidrop Combi (Thermo-Fisher). The compounds were allowed to incubate with CARM1 for 30 min at room temperature, then a cocktail (10 ul) containing ^3H-SAM and peptide was added to initiate the reaction (final volume=51 ul). The final concentrations of the components were as follows: CARM1 was 0.25 nM, ^3H-SAM was 30 nM, peptide was 250 nM, SAH in the minimum signal control wells was 1 mM, and the DMSO concentration was 2%. The assays were stopped by the addition of non-radiolabeled SAM (10 ul) to a final concentration of 300 uM, which dilutes the ^3H-SAM to a level where its incorporation into the peptide substrate is no longer detectable. 50 ul of the reaction in the 384-well polypropylene plate was then transferred to a 384-well Flashplate and the biotinylated peptides were allowed to bind to the streptavidin surface for at least 1 hour before being washed once with 0.1% Tween20 in a Biotek ELx405 plate washer. The plates were then read in a PerkinElmer TopCount plate reader to measure the quantity of ^3H-labeled peptide bound to the Flashplate surface, measured as disintegrations per minute (dpm) or alternatively, referred to as counts per minute (cpm).
Where dpm=disintegrations per minute, cmpd=signal in assay well, and min and max are the respective minimum and maximum signal controls.
Where top and bottom are the normally allowed to float, but may be fixed at 100 or 0 respectively in a 3-parameter fit. […]

Where only a bound is given, the exact number is not on record here.

For `CN(CCN)Cc1c[nH]nc1-c1ccsc1` [Compound 3], the IC50 was in the range of 3.01 to 10 µM.

Regarding `CN(CCN)Cc1c[nH]nc1-c1cncnc1` [Compound 4], the IC50 was at least 10 µM.

Regarding `CN(CCN)Cc1c[nH]nc1-c1cccs1` [Compound 5], the IC50 is at least 10 µM.

The compound `CN(CCN)Cc1c[nH]nc1-c1ccco1` [Compound 6] yielded an IC50 of 3.01 to 10 µM.

As to `CN(CCN)Cc1c[nH]nc1-c1ccoc1` [Compound 7], the IC50 fell in the range of 3.01 to 10 µM.

Take `CN(CCN)Cc1c[nH]nc1-c1cnn(C)c1` [Compound 8]: the IC50 lay within 3.01 to 10 µM.

`CN(CCN)Cc1c[nH]nc1-c1ccc2scnc2c1` [Compound 9] registered an IC50 of 1.01 to 3 µM.

As to `Cc1noc(C)c1-c1n[nH]cc1CN(C)CCN` [Compound 10], the IC50 is at least 10 µM.

In turn, `COc1ncc(-c2n[nH]cc2CN(C)CCN)cn1` [Compound 11] gave an IC50 of at least 10 µM.

Turning to `CN(CCN)Cc1c[nH]nc1-c1cn[nH]c1` [Compound 12], the IC50 was at least 10 µM.

Take `CN(CCN)Cc1c[nH]nc1-c1cnc2[nH]ccc2c1` [Compound 13]: the IC50 fell in the range of 0.101 to 1 µM.

Compound `CN(CCN)Cc1c[nH]nc1-c1cc[nH]n1` [Compound 14] had an IC50 of at least 10 µM.
